In the assay the target is T1, KATP channels (Homo sapiens, UniProt O60706).
T1 construct: TE671 human medulloblastoma cells were obtained from ATCC; host or cells: TE671 human medulloblastoma cells
The assay can be described thus: Potassium Channel Assay (FLIPR membrane potential, KATP channel opening). It is filed as cell-based. The conditions noted are these: TE671 human medulloblastoma cells, Membrane Potential Assay Dye, room temperature; for % Stimulation: test concentration not given. As to the method:
TE671 human medulloblastoma cells were obtained from ATCC and grown in Dulbecco's modified Eagle's medium (DMEM) supplemented with 10% fetal bovine serum, 100 U/ml penicillin and 100 U/ml streptomycine.
The day before testing, the cells were plated in black 96-well plates at 50K/well. On the day of testing, the growth media was removed, then 100 μl of FLIPR buffer (20 mM HEPES, 120 mM NaCl, 2 mM KCl, 2 mM CaCl2, 1 mM MgCl2, 5 mM Glucose) and 100 μl of Membrane Potential Assay Dye (Molecular Devices) dissolved in FLIPR buffer were added to each well. The cells were incubated at room temperature for 15 to 30 min.
The effect of test compounds on KATP channels were evaluated on a fluorometric imaging plate reader (FLIPR, Molecular Devices) at room temperature. After a baseline period, 50 μl of 5× stock solution of test compound prepared in FLIPR buffer was added and fluorescence change was monitored for 3 minutes. After this reading, glyburide, a KATP channel blocker, was added to a final concentration of 5 μM to check the specificity of the test compound as a KATP channel opener. Hyperpolarization resulting from KATP channel opening was observed as a decrease in fluorescence intensity.

A word on the pEC50: it is −log10 of the EC50, conventionally taken in molar units. A lower pEC50 goes with a high EC50.

SMILES strings stand for the structures. pEC50: −log10 of the molar value.

T1 sequence (O60706 1-1549 isoform O60706-2): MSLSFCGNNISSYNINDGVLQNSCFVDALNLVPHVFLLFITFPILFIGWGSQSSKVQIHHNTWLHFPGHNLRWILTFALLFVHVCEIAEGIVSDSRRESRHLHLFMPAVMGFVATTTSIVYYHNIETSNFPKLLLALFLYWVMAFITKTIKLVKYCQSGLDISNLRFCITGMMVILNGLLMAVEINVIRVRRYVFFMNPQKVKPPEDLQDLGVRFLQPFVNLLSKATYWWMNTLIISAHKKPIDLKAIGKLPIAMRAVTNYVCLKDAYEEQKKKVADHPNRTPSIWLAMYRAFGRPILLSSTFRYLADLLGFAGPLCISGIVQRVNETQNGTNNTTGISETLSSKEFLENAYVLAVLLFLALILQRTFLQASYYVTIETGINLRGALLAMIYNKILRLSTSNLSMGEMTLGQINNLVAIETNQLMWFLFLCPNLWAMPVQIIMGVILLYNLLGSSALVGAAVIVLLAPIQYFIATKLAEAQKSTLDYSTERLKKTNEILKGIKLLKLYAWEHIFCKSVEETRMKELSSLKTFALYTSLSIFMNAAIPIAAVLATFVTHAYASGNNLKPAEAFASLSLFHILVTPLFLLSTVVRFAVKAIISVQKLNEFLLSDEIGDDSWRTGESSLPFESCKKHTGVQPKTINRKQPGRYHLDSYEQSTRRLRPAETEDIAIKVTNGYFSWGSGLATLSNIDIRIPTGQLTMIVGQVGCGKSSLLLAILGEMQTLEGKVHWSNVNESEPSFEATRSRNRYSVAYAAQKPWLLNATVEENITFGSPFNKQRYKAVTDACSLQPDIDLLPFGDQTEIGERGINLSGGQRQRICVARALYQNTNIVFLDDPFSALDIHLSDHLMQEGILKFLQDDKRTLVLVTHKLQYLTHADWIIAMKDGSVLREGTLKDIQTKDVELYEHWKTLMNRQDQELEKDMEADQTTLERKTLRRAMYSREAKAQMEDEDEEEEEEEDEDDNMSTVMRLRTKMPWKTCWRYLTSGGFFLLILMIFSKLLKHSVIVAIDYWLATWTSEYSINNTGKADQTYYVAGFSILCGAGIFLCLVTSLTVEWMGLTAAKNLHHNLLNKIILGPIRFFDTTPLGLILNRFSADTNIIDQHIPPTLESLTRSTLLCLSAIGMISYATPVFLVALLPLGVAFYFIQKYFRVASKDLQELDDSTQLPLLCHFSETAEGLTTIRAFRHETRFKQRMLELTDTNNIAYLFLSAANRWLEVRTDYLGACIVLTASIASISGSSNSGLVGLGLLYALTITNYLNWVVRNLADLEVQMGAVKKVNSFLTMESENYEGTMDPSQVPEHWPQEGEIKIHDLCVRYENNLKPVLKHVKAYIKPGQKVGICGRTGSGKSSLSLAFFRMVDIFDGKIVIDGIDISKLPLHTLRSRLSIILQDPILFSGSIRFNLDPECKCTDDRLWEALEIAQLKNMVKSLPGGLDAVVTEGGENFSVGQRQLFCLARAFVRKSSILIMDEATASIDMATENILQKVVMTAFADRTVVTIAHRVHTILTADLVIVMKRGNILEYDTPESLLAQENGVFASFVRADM
T1 sequence (Q14654 whole entry partner): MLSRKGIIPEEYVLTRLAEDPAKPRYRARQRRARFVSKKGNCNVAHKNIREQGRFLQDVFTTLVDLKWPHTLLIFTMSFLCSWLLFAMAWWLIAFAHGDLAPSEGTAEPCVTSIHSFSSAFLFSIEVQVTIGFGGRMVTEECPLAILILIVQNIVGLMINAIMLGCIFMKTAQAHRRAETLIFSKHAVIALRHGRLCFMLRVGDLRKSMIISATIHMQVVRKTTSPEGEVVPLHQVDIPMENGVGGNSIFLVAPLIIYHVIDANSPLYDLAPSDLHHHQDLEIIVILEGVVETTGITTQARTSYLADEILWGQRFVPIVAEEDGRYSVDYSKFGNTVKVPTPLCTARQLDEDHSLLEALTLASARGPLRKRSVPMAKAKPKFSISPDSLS

With `Cc1cc(C)c(C(O)c2cnccc2-c2cccc(C#N)c2)c(C)c1` (centres unmarked) [Compound 35, 3-{3-[Hydroxy-(2,4,6-trimethyl-phenyl)-methyl]-pyridin-4-yl}-benzonitrile], the pEC50 was under 4.52.

Take `COc1ccc(C(O)c2cnccc2-c2cccc(C#N)c2)cc1` (centres unmarked) [Compound 30, 3-{3-[Hydroxy-(4-methoxy-phenyl)-methyl]-pyridin-4-yl}-benzonitrile]: the pEC50 was under 4.52 and the “% Stimulation” value was 7%.

Consider `N#Cc1cccc(-c2ccncc2C(O)c2cccc(F)c2)c1` (centres unmarked) [Compound 21, 3-{3-[(3-Fluoro-phenyl)-hydroxy-methyl]-pyridin-4-yl}-benzonitrile], for which the pEC50 was 4.63. Regarding `N#Cc1cccc(-c2ccncc2C(O)c2cc(Cl)cc(Cl)c2)c1` (centres unmarked) [Compound 25, 3-{3-[(3,5-Dichloro-phenyl)-hydroxy-methyl]-pyridin-4-yl}-benzonitrile], the pEC50 is 5.01. The molecule `N#Cc1cccc(-c2ccncc2C(O)c2ccc(F)cc2)c1` (centres unmarked) [Compound 20, 3-{3-[(4-Fluoro-phenyl)-hydroxy-methyl]-pyridin-4-yl}-benzonitrile] had a pEC50 of 4.71. This pEC50 lies 0.30 log units lower than the previous one. Still for that read-out and setting: the same measure for `CCOC(=O)c1cnc2cc(C(F)(F)F)ccc2c1-c1ccccc1` [Compound 6, 4-Phenyl-7-trifluoromethyl-quinoline-3-carboxylic acid ethyl ester]: under 4.52.

In turn, `OCc1cnccc1C(O)c1ccccc1` (centres unmarked) [Compound 56, (3-Hydroxymethyl-pyridin-4-yl)-phenyl-methanol] had a pEC50 of under 4.52. The molecule `CSc1ccc(C(O)c2cnccc2-c2cccc(C#N)c2)cc1` (centres unmarked) [Compound 34, 3-{3-[Hydroxy-(4-methylsulfanyl-phenyl)-methyl]-pyridin-4-yl}-benzonitrile] had a pEC50 of 4.68. `CCOC(=O)c1cnc2cc(C(F)(F)F)ccc2c1-c1cccc(C#N)c1` [Compound 1, 4-(3-Cyano-phenyl)-7-trifluoromethyl-quinoline-3-carboxylic acid ethyl ester] had a pEC50 of under 4.52. In turn, `N#Cc1cccc(C2OC(O)c3cnccc32)c1` (centres unmarked) [Compound 55, 3-(3-Hydroxy-1,3-dihydro-furo[3,4-c]pyridin-1-yl)-benzonitrile] showed a pEC50 of under 4.52. The molecule `N#Cc1cccc(-c2ccncc2C=O)c1` [Compound 51, 3-(3-Formyl-pyridin-4-yl)-benzonitrile] gave a pEC50 of under 4.52.

`Cc1ccc(C(O)c2cnccc2-c2cccc(C#N)c2)cc1F` (centres unmarked) [Compound 22, 3-{3-[(3-Fluoro-4-methyl-phenyl)-hydroxy-methyl]-pyridin-4-yl}-benzonitrile] gave a pEC50 of 4.82. The molecule `O=C(c1ccccc1)c1ccncc1C(O)c1ccccc1` (centres unmarked) [Compound 43, [3-(Hydroxy-phenyl-methyl)-pyridin-4-yl]-phenyl-methanone] had a pEC50 of 4.76. As for `N#Cc1cccc(C2OCc3cnccc32)c1` (centres unmarked) [Compound 66, 3-(1,3-Dihydro-furo[3,4-c]pyridin-1-yl)-benzonitrile], the pEC50 was 5.09. As to `CCOC(=O)c1cnc2cc(C(F)(F)F)ccc2c1-c1cc(C=O)ccc1OC` [Compound 9, 4-(5-Formyl-2-methoxy-phenyl)-7-trifluoromethyl-quinoline-3-carboxylic acid ethyl ester], the pEC50 was 5.11. `Cc1ccc(C(O)c2cnccc2-c2cccc(C#N)c2)cc1` (centres unmarked) [Compound 32, 3-{3-[Hydroxy-(4-methyl-phenyl)-methyl]-pyridin-4-yl}-benzonitrile]: the pEC50 is 5.07. This pEC50 and that of the molecule before are within 0.2 log units of each other.

Turning to `CCOC(=O)c1cnc2cc(C(F)(F)F)ccc2c1-c1cccc(C(C)=O)c1` [Compound 7, 4-(3-Acetyl-phenyl)-7-trifluoromethyl-quinoline-3-carboxylic acid ethyl ester], the pEC50 is under 4.52 and the “% Stimulation” value is reported as 2%. `OC1OC(c2ccccc2)c2ccncc21` (centres unmarked) [Compound 65, 1-Phenyl-1,3-dihydro-furo[3,4-c]pyridin-3-ol] showed a pEC50 of under 4.52.

In turn, `CCOC(=O)c1cnc2cc(C(F)(F)F)ccc2c1-c1cccc(C(F)(F)F)c1` [Compound 10, 7-Trifluoromethyl-4-(3-trifluoromethyl-phenyl)-quinoline-3-carboxylic acid ethyl ester] showed a pEC50 of under 4.52. As to `COc1ccc(OC)c(C(O)c2cnccc2C(=O)c2ccccc2)c1` (centres unmarked) [Compound 46, {3-[(2,5-Dimethoxy-phenyl)-hydroxy-methyl]-pyridin-4-yl}-phenyl-methanone], the negative logarithm of the EC50 (pEC50) was 4.92. The same measure, in the same setting: the same measure for `N#Cc1cccc(C(=O)c2ccncc2C(O)c2ccccc2)c1` (centres unmarked) [Compound 48, 3-[3-(Hydroxy-phenyl-methyl)-pyridine-4-carbonyl]-benzonitrile]: 4.84.

Source of the values: patent US7790895B2, “Quinoline derivatives as potassium ion channel openers” (Janssen Pharmaceutica NV, priority 2005, dated 2010).
